Data: article PMC10258805, “Nonpeptidic Oxazole-Based Prolyl Oligopeptidase Ligands with Disease-Modifying Effects on α-Synuclein Mouse Models of Parkinson’s Disease” (Journal of Medicinal Chemistry, 2023)
“Also recorded” adds a separate entry of the source.

Assays:
DPP4 = molecular target: T1, DPP4 (Homo sapiens, UniProt P27487); assay: Close-relative enzyme specificity assay, DPP4; assay type: biochemical; conditions: 1 or 10 μM
T1 construct: DPPIV was purified from human seminal plasma; from tissue; host or cells: human seminal plasma
T1 sequence (P27487 whole entry): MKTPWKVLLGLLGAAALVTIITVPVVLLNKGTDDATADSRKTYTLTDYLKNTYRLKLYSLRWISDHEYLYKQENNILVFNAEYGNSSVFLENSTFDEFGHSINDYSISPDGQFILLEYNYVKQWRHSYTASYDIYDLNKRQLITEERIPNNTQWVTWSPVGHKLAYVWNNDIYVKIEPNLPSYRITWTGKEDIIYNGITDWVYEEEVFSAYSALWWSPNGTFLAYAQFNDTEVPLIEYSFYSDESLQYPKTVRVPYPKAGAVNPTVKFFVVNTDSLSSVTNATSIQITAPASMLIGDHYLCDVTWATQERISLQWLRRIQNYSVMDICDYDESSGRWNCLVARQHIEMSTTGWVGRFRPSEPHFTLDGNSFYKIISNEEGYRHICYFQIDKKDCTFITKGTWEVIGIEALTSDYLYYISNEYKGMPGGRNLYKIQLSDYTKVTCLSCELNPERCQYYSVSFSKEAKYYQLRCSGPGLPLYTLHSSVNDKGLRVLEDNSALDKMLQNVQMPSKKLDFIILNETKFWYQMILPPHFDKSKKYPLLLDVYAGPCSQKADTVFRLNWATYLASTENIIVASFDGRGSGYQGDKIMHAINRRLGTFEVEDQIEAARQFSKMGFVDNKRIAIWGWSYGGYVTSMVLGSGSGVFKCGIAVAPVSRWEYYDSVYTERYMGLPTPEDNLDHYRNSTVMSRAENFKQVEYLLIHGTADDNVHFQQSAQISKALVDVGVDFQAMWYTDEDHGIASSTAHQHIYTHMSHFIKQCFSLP
Protocol: DPP4: DPPIV was purified from human seminal plasma, as described previously.
DPP4 and DPP9: Ala-Pro-para-nitroanilide (pNA) was used as the substrate at the respective concentrations of 25 μM (DPP4) or 150 μM (DPP9) at pH 7.4 (0.05 M HEPES–NaOH buffer with 0.1% Tween-20, 0.1 mg/mL BSA, and 150 mM NaCl). […] Measurements were done on the Infinite 200 as above.

[1] = tested on: oligomeric αSyn in A30P*A53T transgenic mice; assay: Oligomeric αSyn in A30P*A53T transgenic mice; assay type: in vivo, mouse; conditions: TG mice, 10 mg/kg i.p. every 12 h for 7 days, vs vehicle
SH-SY5Y cells = assay: Cell viability (MTT) in SH-SY5Y cells; assay type: cell-based, human; conditions: up to 100 μM, 24 h
Protocol: Toxicity testing of selected compounds
The impact of compounds on cell viability was assayed at the end of incubation period using a standard MTT assays as described earlier in Svarcbahs et al.11 and Myöhänen et al.12 HEK-293 and SH-SY5Y cells and mouse primary neurons were seeded onto 96-well plates (10,000 cells/well) and incubated overnight. Thereafter, the cells were incubated with 1, 10, and 100 µM of study compounds for 24 h (HEK-293 and SH-SY5Y cells) or 48 h (mouse primary neurons), followed by the measurement of mitochondrial […]
Figure S68. Selected oxazoles were tested for cell viability in an MTT assay after 24 h treatment in (A) HEK-293 cells and (B) SH-SY5Y cells and 48 h treatment in (C) mouse primary neurons. Even with the high […]
Data are presented as mean + […]
LC-MS detection of HUP-55 metabolites in the mouse brain
The same column and gradient was used with UPLC-HDMS analysis of the metabolites of HUP-55, as for the analysis of HUP-55 detailed in the experimental section of the article. The analyses were performed with ESI (+) resolution mode and the exact masses were analysed with UPLC-Synapt G2 QTOF/MS (Waters). The […]
Compound Retention time (min) m/z (M+H)+ Empirical formula

Recombinant human DPP2 = molecular target: T2, Recombinant human DPP2 (Homo sapiens, UniProt Q9UHL4); assay: Close-relative enzyme specificity assay, DPP2; assay type: biochemical; conditions: 1 or 10 μM
T2 construct: purchased R&D Systems 3438-SE-010
Protocol: DPP2: Recombinant human DPP2 was purchased from R&D Systems (#3438-SE-010).
DPP2: Lys-Ala-pNA was used as the substrate at a concentration of 1 mM at pH 5.5 (100 mM NaAc, 10 mM EDTA, 14 μg/mL aprotinin). […] The substrate was added, and the velocities of pNA release were measured kinetically at 405 nm for at least 10 min at 37 °C. Measurements were done on the Infinite 200 as above.

[2] = tested on: pPP2Ac and PP2Ac in mouse brain; assay: PP2A markers in mouse brain (Western blot); assay type: in vivo; conditions: 10 mg/kg i.p., 45 min after injection

## Cc1nc(CCCc2ccccc2)oc1N1CCC[C@H]1C#N [HUP-55, (S)-1-(4-Methyl-2-(3-phenylpropyl)oxazol-5-yl)pyrrolidine-2-carbonitrile]
DPP4
  inhibition of DPP4: no inhibition; also recorded: does not inhibit
[1]; nonsignificant
  decrease of oligomeric αSyn in the SNpc: 38%
[1]; not statistically significant
  decrease of oligomeric αSyn in the STR: 47%
SH-SY5Y cells
  toxicity (cell viability): None of the compounds caused any toxicity
Recombinant human DPP2
  inhibition of DPP2: no inhibition; also recorded: does not inhibit
[2]
  inactive pPP2Ac levels in mouse brain (in words): decreased inactive pPP2Ac levels, but this was not significant
  levels of PP2Ac in mouse brain (in words): significantly increased the levels of PP2Ac
